Molecules are shown by their SMILES.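 Cultured in 96-well plates, cells were exposed to test compound for 48 hours across five concentrations. At the GI50, growth is halved.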 Activity calls are given as the source filed them. No stated cut-off is given here; in the data, active = GI50 up to about 1.1 µM and inactive = higher.

These results are taken from ChEMBL document CHEMBL1201862, “PubChem BioAssay data set” (2004).

Assay in all cases: inhibition of tumour cell growth, NCI panel, 48 h
The test system of assay [1] is ACHN.
For assay [2], the system named is COLO 205.
The test system of assay [3] is DMS-273.
The test system of assay [4] is EKVX.
Assay [5] concerns HCT-116.
Assay [6] concerns HL-60.
Assay [7] deals with HOP-62.
For assay [8], the system named is HOP-92.
Assay [9] concerns Malme-3M.
Assay [10] deals with NCI-H226.
Assay [11] concerns NCI-H23.
In assay [12] the test system is NCI-H460.
In assay [13] the test system is OVCAR-4.
The test system of assay [14] is SW-620.
In assay [15] the test system is UACC-62.
In assay [16] the test system is SR.

For the compound `O=[N+]([O-])c1cccc(/C=N/C23CC4CC(CC(C4)C2)C3)c1`, the GI50 was > 100 µM (inactive) in assay [1]; > 100 µM (inactive) in assay [2]; > 100 µM (inactive) in assay [3]; > 100 µM (inactive) in assay [4]; > 100 µM (inactive) in assay [5]; 23.9 µM (inactive) in assay [6]. Also, the GI50 in [7], in assay [8], in assay [9], in assay [10], in [11] and in assay [12] was > 100 µM (inactive) each time. Also, the GI50 was > 100 µM (inactive) in assay [13], 57.1 µM (inactive) in assay [14] and > 100 µM (inactive) in assay [15].

As for `NC(=O)c1csc(C2C=CC(CO)O2)n1` (stereo unspecified), the GI50 in assay [1], in assay [2], in [3], in assay [4], in [5] and in assay [6] was > 100 µM (inactive) in each case. Besides, the GI50 in assay [7], in assay [8], in [9], in assay [10], in assay [11] and in [12] was > 100 µM (inactive) each time. Also, the GI50 in [13], in assay [14] and in assay [15] was > 100 µM (inactive) each time.

With `COc1cc(CCc2ccncc2)cc(OC)c1OC`, the GI50 in assay [1], in assay [2], in [3], in [4], in assay [5] and in [6] was > 100 µM (inactive) each time. In addition, the GI50 in [7], in assay [8], in assay [9], in assay [10], in assay [11] and in assay [12] was > 100 µM (inactive) each time. Besides, the GI50 in [13], in assay [14] and in assay [15] was > 100 µM (inactive) each time.

With `CC(=O)c1c(O)c2c([nH]c1=O)CCCC2`, the GI50 is > 100 µM (inactive) in [1]; > 100 µM (inactive) in assay [2]; 25.6 µM (inactive) in assay [3]; 51.1 µM (inactive) in assay [4]; 48.3 µM (inactive) in [6]; 19.9 µM (inactive) in assay [7]. Moreover, the GI50 is > 100 µM (inactive) in [8]; > 100 µM (inactive) in assay [9]; 41.1 µM (inactive) in assay [11]; 6.84 µM (inactive) in assay [12]; > 100 µM (inactive) in assay [13]; > 100 µM (inactive) in assay [14]. Further, the GI50 in assay [15] is 18.1 µM (inactive).

For the compound `CSC(C1c2ccccc2N(c2ccc(C)cc2)C2=NC(=O)N(C)C(=O)C21Cl)S(=O)(=O)c1ccc(C)cc1` (stereo unspecified), the GI50 in [1] is 31.4 µM (inactive); in assay [2], 19.3 µM (inactive); in [3] it was 20 µM (inactive); in assay [4], 35.4 µM (inactive); in assay [5] it was 13 µM (inactive); in assay [6], 3.31 µM (inactive). Moreover, the GI50 in assay [7] was 20.7 µM (inactive); in assay [8], 11 µM (inactive); in [9], 17.2 µM (inactive); in assay [10], 22.2 µM (inactive); in [11] it was 22 µM (inactive); in assay [12], 24 µM (inactive). For the same compound, the values for the GI50 in assay [13], in assay [14] and in assay [15] were 17.9 µM (inactive), 30.6 µM (inactive) and 21.6 µM (inactive), respectively.

As for `Cc1cc(C)nc(NS(=O)(=O)c2ccc(Nc3c4ccccc4nc4c(C(=O)NCCN(C)C)cccc34)cc2)n1`, the GI50 in [1] is 3.49 µM (inactive); in assay [2], 1.86 µM (inactive); in assay [3], 0.813 µM (active); in [4], 10.5 µM (inactive); in assay [5] it was 1.53 µM (inactive); in assay [6] it was 1.49 µM (inactive). Further, the GI50 in [7] was 2.52 µM (inactive); in assay [10], 2.17 µM (inactive); in assay [11] it was 4.26 µM (inactive); in [12], 0.771 µM (active); in assay [13], 3.04 µM (inactive); in [16], 0.302 µM (active). The GI50 in assay [14] is 0.764 µM (active); in [15] it was 3.55 µM (inactive).

`COC(=O)C1=C(O)c2cc(-c3ccccc3)c(-c3ccccc3)c(C#N)c2NC(=O)C1`: the GI50 in assay [1] is 24 µM (inactive); in assay [2], 6.08 µM (inactive); in assay [3], 2.13 µM (inactive); in assay [4], > 100 µM (inactive); in [5], 1.92 µM (inactive); in assay [6], 1.33 µM (inactive). Also, the GI50 in assay [7] is 20.4 µM (inactive); in [11], > 100 µM (inactive); in assay [12] it was 3.7 µM (inactive); in assay [13], 27.2 µM (inactive); in [16], 2.96 µM (inactive); in assay [15] it was 3.97 µM (inactive).

Take `CCCNCCCCC(NC(C)=O)C(=O)NCc1ccccc1` (stereo unspecified): the GI50 in assay [1], in assay [2], in assay [3], in assay [4], in assay [5] and in assay [7] was > 100 µM (inactive) in each case. The GI50 in assay [8], in [9], in assay [10], in [11], in assay [12] and in assay [13] was > 100 µM (inactive) throughout. The GI50 in [14] and in [15] was > 100 µM (inactive) throughout.

As for `Cc1cc2c(C)n[nH]c2c(C(=O)O)c1C`, the GI50 in assay [1], in assay [2], in assay [3], in assay [4], in assay [5] and in assay [6] was > 100 µM (inactive) in each case. The GI50 in assay [7] is > 100 µM (inactive); in assay [8], < 0.01 µM (active); in assay [11] it was 85.7 µM (inactive); in assay [12] it was > 100 µM (inactive); in assay [13], 51.6 µM (inactive); in assay [16], > 100 µM (inactive). The GI50 in [14] and in assay [15] was > 100 µM (inactive) throughout.

Regarding `Cc1nc2ccccc2[s+]c1-c1cnc(NC#N)nc1C(=O)Nc1cccc(Cl)c1`, the GI50 in assay [1], in [2], in [3], in [4], in assay [5] and in assay [7] was > 100 µM (inactive) each time. In addition, the GI50 in [9], in assay [10], in assay [11], in assay [12], in assay [13] and in assay [16] was > 100 µM (inactive) in each case. In addition, the GI50 in [14] and in assay [15] was > 100 µM (inactive) throughout.

Take `O=C(N/C(=C\c1ccc(/C=C(\NC(=O)c2ccccc2)c2nc3ccccc3[nH]2)cc1)c1nc2ccccc2[nH]1)c1ccccc1`: the GI50 in assay [1] was > 100 µM (inactive); in assay [2] it was > 100 µM (inactive); in [3], 52.8 µM (inactive); in [4] it was > 100 µM (inactive); in assay [5] it was > 100 µM (inactive); in assay [7] it was > 100 µM (inactive). The GI50 in assay [8], in [9], in [11], in assay [12], in [13] and in assay [14] was > 100 µM (inactive) throughout. Moreover, the GI50 in [15] is > 100 µM (inactive).

`COC1CC(n2cc(F)c(N)nc2=O)OC1CO` (stereo unspecified): the GI50 in [1], in [2], in [3], in [4], in [6] and in [7] was > 100 µM (inactive) throughout. The GI50 in [8] was > 100 µM (inactive); in [9], > 100 µM (inactive); in assay [10], > 100 µM (inactive); in assay [11], > 100 µM (inactive); in [12], 94 µM (inactive); in assay [13] it was > 100 µM (inactive). Besides, in [14], the GI50 is > 100 µM (inactive).

For `O=C(CC1(O)C(=O)Nc2c(Cl)ccc(Cl)c21)c1ccc(Cl)cc1` (stereo unspecified), the GI50 in assay [1] was 20.8 µM (inactive); in assay [2] it was 18.6 µM (inactive); in assay [3], 27 µM (inactive); in assay [4] it was 95.3 µM (inactive); in [5], 29.4 µM (inactive); in [7] it was 32 µM (inactive). Further, the GI50 in assay [8] was 37.8 µM (inactive); in assay [9], 28.8 µM (inactive); in assay [10], 38.5 µM (inactive); in [11], 21.6 µM (inactive); in assay [12], 23.4 µM (inactive); in assay [13], 25.7 µM (inactive). The figures for the GI50 in assay [14] and in [15] were 55.5 µM (inactive) and 23.1 µM (inactive), respectively.

Consider `CN(C)CCC(/C=C/c1ccccc1)=N\Nc1ccc(Cl)c(Cl)c1`, for which the GI50 in assay [1] was 1.92 µM (inactive); in assay [2] it was 2.6 µM (inactive); in assay [3], 2.36 µM (inactive); in assay [4], 3.66 µM (inactive); in assay [5], 3.56 µM (inactive); in [6], 2.7 µM (inactive). Moreover, the GI50 in assay [7] is 3.15 µM (inactive); in [8] it was 1.41 µM (inactive); in [9] it was 14.2 µM (inactive); in [11], 2.81 µM (inactive); in [12], 2.01 µM (inactive); in assay [13], 3.56 µM (inactive). Moreover, the GI50 in [16] was 2.09 µM (inactive); in [14], 3.45 µM (inactive); in assay [15], 2.55 µM (inactive).
